Blank lines part the entries; values can stand above or below the molecule they belong to.
What was measured:
malignant brain tumors = details: in vivo; cited from earlier work
EMT-6 mammary carcinomas = assay: Biodistribution of porphyrin IX in mice bearing EMT-6 carcinomas (tissue boron analyses); format: in vivo, BALB/c mice; details: for Average boron concentration, Blood / Average boron concentration, Brain / Average boron concentration, EMT-6 Tumor / Average boron concentration, Liver: 87 mg/kg (30 mg B/kg) in 3 i.p. injections over 8 hours, n = 5
Experimental: (§1) BALB/c mice bearing subcutaneously implanted EMT-6 mammary carcinomas implanted on the dorsal thorax were given a total dose of 87 milligrams porphyrin compound (IX) per kilogram body weight (30 mg B/kg) in 3 intraperitoneal (i.p.) injections over a period of 8 hours. At two and four days after the last injection, mice were euthanized, and tumor, blood, brain, and liver were removed for boron analyses. The blood was first analyzed for hematologic parameters that indicate toxicity before it was analyzed for boron.

[1] = Weight changes and hematologic parameters from porphyrin (IX) in mice; details: for % Weight change / Granulocytes / Lymphocytes / Platelets: median (and range)
Experimental: as §1

[2] = 2 days after last injection, 87 mg/kg (30 mg B/kg)
[3] = 4 days after last injection, 87 mg/kg (30 mg B/kg)

Molecule: N[C@@H](Cc1ccc(B(O)O)cc1)C(=O)O [BPA, p-boronophenylalanine]
chemical toxicity (malignant brain tumors): low chemical toxicity

Average boron concentration, Blood (EMT-6 mammary carcinomas; 2 days after last injection): 0.5 ± 0.2 μg B/g
Average boron concentration, Brain (EMT-6 mammary carcinomas; 2 days after last injection): 0.2 ± 0.0 μg B/g
Average boron concentration, EMT-6 Tumor (EMT-6 mammary carcinomas; 2 days after last injection): 43.5 ± 10.0 μg B/g
Average boron concentration, Liver (EMT-6 mammary carcinomas; 2 days after last injection): 353 ± 55 μg B/g
Average boron concentration, Blood (EMT-6 mammary carcinomas; 4 days after last injection): 0.2 ± 0.1 μg B/g
Average boron concentration, Brain (EMT-6 mammary carcinomas; 4 days after last injection): 0.3 ± 0.2 μg B/g
Average boron concentration, EMT-6 Tumor (EMT-6 mammary carcinomas; 4 days after last injection): 27.8 ± 7.6 μg B/g
Average boron concentration, Liver (EMT-6 mammary carcinomas; 4 days after last injection): 250 ± 70 μg B/g
tumor to brain boron ratio (EMT-6 mammary carcinomas; EMT-6 tumor-bearing mice, compared with tumor to blood ratio): even higher
tumor boron concentrations, adequacy for therapy (EMT-6 mammary carcinomas; particularly at the two-day time-point): adequate for therapy
platelet count compared to solvent-only mice ([1]; 2-day time point): small but significant decrease
% Weight change [1, 2]: 0.4 (−4.9–2.5) %
Granulocytes [1, 2]: 53 (42–60) % WBC
Lymphocytes [1, 2]: 44 (37–56) % WBC
Platelets [1, 2]: 193 (51–432) 10^3/mm^3
% Weight change [1, 3]: −0.6 (−4.7–1.5) %
Granulocytes [1, 3]: 62 (57–67) % WBC
Lymphocytes [1, 3]: 35 (30–39) % WBC
Platelets [1, 3]: 917 (670–1128) 10^3/mm^3
Molecule: Copper meso-5,10,15,20-tetrakis[3-(3,5-o-dicarboranyl methoxybenzyloxy)phenyl]porphyrin [Porphyrin compound (IX)]
weight change compared to solvent-injected mice ([1]; 87 mg/kg (30 mg B/kg)): no differences between porphyrin- and solvent-injected mice
platelet count compared to solvent-only group ([1]; 4-day time point): rebounded to a level greater than those from the solvent-only group
